# From ChEMBL document CHEMBL3045480, “Goat brain enkephalin degrading enzyme: interaction with analgesic and antihypertensive drugs” (Med Chem Res, 2011)
# Molecular target: T1, Dipeptidyl peptidase 3 (Bos mutus) (UniProt L8I2E6)
# T1 sequence (whole entry): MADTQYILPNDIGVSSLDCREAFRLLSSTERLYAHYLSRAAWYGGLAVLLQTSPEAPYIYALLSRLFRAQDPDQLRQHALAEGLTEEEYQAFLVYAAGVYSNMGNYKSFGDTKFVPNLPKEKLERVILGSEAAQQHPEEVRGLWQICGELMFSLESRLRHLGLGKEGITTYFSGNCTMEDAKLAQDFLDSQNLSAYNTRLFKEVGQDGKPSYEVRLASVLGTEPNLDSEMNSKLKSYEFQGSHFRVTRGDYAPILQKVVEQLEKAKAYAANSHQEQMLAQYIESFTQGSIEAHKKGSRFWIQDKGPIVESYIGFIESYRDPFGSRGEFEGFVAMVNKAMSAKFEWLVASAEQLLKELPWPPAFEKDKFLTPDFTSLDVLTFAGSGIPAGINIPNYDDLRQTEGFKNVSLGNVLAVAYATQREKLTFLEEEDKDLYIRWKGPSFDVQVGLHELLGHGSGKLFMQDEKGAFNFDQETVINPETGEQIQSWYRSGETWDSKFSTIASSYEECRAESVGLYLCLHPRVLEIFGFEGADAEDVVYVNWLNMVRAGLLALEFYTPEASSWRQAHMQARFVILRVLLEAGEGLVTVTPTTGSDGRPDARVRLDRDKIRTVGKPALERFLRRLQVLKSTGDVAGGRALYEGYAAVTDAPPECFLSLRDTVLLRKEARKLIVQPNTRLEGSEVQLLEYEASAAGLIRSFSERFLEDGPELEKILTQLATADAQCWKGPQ
# Experiment: Inhibition of Capra hircus (goat) brain DPP-3 using Arg-Arg-4mbetaNA as substrate assessed as liberation of 4mbetaNA from substrate
# Conditions: target entry is the homologue from another species
row,inhibition [%],Compound
1,71,CS(=O)(=O)c1ccc(C2=C(c3ccccc3)C(=O)OC2)cc1
2,96,CC(=O)Nc1ccc(O)cc1
3,85,O=C(O)Cc1ccccc1Nc1c(Cl)cccc1Cl
